Laboratory results as given in article PMC7366379 (Journal of the American Chemical Society, 2020).
“And” between values parts separate entries of the source, which are not always exact repeats. Equal entries are not always repeated. Where two headings read alike, the source gives them in different places. Side chains are listed from the residue outwards. Ends that are not written are not given here. Peptide text beside a SMILES is read from it. * marks the point of attachment. Biotin = O=C1N[C@H]2[C@H](CS[C@H]2CCCCC(=O)*)N1

What was measured:
OmpF [1] = molecular target: T1, OmpF (Escherichia coli, UniProt P02931); type: binding; set-up: made in house; host or cells: E. coli BZB1107 (ompF-, ompC-), plasmid pNGH72; conditions: for k1 / k2 / k3 / k–1 / k–2 / k–3: extrapolated to 0 mV; for k1: DPhPC bilayer, 20 mM potassium phosphate pH 6.4, 0.1 M KCl, 20.5 °C, at least three independent experiments; for k2 / k3 / k–1 / k–2 / k–3: pH 6.4, 0.1 M KCl
T1 sequence (P02931 23-362): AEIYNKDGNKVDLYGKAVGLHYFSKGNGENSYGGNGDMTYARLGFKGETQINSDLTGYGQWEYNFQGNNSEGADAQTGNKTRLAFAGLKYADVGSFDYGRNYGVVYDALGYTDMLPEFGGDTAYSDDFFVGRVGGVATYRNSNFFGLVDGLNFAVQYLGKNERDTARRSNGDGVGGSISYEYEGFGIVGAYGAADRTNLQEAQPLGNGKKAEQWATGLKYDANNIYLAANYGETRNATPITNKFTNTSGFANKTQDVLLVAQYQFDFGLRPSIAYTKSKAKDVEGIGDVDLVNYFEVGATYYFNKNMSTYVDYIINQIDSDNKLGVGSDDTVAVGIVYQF

[2] = molecular target: OmpF porin trimer (outer-membrane protein F) (Escherichia coli) (UniProt P02931); assay: single-channel electrical recording in planar lipid bilayer
[3] = molecular target: OmpF porin trimer (outer-membrane protein F) (Escherichia coli) (UniProt P02931); assay: as above; remark: listed apart in the source
[4] = molecular target: OmpF porin trimer (outer-membrane protein F) (Escherichia coli) (UniProt P02931); assay: single-channel electrical recording in planar lipid bilayer; single OmpF trimer in a DPhPC bilayer; binder added to the extracellular side; -100 mV (as stated for Figures 2, 3 and 5); 20 mM potassium phosphate pH 6.4, 0.1 M KCl, 20.5 °C
OmpF (Escherichia coli) = OmpF (Escherichia coli) (UniProt P02931); assay: ITC; conditions: cited from earlier work
[5] = Solubility of IUTD constructs; type: physicochemical
OmpF [6] = molecular target: T1, OmpF
[7] = molecular target: AEDANS-labelled OBS1-fusion protein (colicin E9 OmpF-binding site 1 fused to a carrier) (UniProt P09883); assay: stopped-flow FRET (OmpF tryptophans to AEDANS); conditions: pH 6.5, 4 °C, no added salt stated (20 mM potassium phosphate only)
OmpF porin trimer [8] = molecular target: T2, OmpF porin trimer (E. coli, UniProt P02931 23-362); assay: single-channel electrical recording in planar lipid bilayers; single OmpF trimer in a DPhPC bilayer; peptide added to the extracellular side; phosphate buffer pH 6.4, 100 mM KCl; rate constants at 0 mV by extrapolation from negative applied potentials; Kd for the OmpF monomer (k-1 divided by one-third of k1); conditions: both partners purified
T2 sequence (looked up): T1 sequence (P02931 23-362)

OmpF porin trimer [9] = molecular target: T2, OmpF porin trimer; assay: single-channel electrical recording in planar lipid bilayers; current-voltage plots (-100 to +100 mV) of individual OmpF pores before and after addition of the binder to the extracellular side; conditions: both partners purified
OmpF porin trimer [10] = molecular target: T2, OmpF porin trimer; assay: single-channel electrical recording in planar lipid bilayers; OmpF trimer with two subunits already occluded by untagged IUTD (added to the extracellular side at -100 mV, rest removed by buffer exchange); 1 µM peptide then added to the periplasmic side at +50 mV; conditions: both partners purified
[11] = molecular target: T3, OmpF porin trimer (outer-membrane protein F) (Escherichia coli, UniProt P02931 23-362); assay: single-channel electrical recording in planar lipid bilayer; single OmpF trimer in a DPhPC bilayer; free peptide added to the extracellular (cis) side, negative potentials; constants of Table 1 extrapolated to 0 mV, Kd for a single OmpF subunit; 20 mM potassium phosphate pH 6.4, 0.1 M KCl, 20.5 °C; conditions: both partners purified
T3 sequence (looked up): T1 sequence (P02931 23-362)

[12] = molecular target: T3, OmpF porin trimer (outer-membrane …); assay: single-channel electrical recording in planar lipid bilayer; single OmpF trimer in a DPhPC bilayer; free peptide added to the periplasmic (trans) side, positive potentials; constants of Table 1 extrapolated to 0 mV, Kd for a single OmpF subunit; 20 mM potassium phosphate pH 6.4, 0.1 M KCl, 20.5 °C; conditions: both partners purified
[13] = molecular target: T3, OmpF porin trimer (outer-membrane …); assay: as above; conditions: both partners purified; remark: listed apart in the source
[14] = molecular target: T3, OmpF porin trimer (outer-membrane …); assay: single-channel electrical recording in planar lipid bilayer; single OmpF trimer in a DPhPC bilayer; free peptide added to the extracellular (cis) side, negative potentials; constants of Table 1 extrapolated to 0 mV, Kd for a single OmpF subunit; 20 mM potassium phosphate pH 6.4, 0.1 M KCl, 20.5 °C; conditions: both partners purified; remark: listed apart in the source
[15] = molecular target: T3, OmpF porin trimer (outer-membrane …); assay: single-channel electrical recording in planar lipid bilayer; single OmpF trimer in a DPhPC bilayer; mSA-capped peptide added to the periplasmic side; +100 mV (where stated); 20 mM potassium phosphate pH 6.4, 0.1 M KCl, 20.5 °C; conditions: both partners purified
[16] = molecular target: T3, OmpF porin trimer (outer-membrane …); assay: single-channel electrical recording in planar lipid bilayer; single OmpF trimer in a DPhPC bilayer; binder added to the extracellular side; -100 mV (as stated for Figures 2, 3 and 5); 20 mM potassium phosphate pH 6.4, 0.1 M KCl, 20.5 °C; conditions: both partners purified
[17] = peptide from the periplasmic side, ± s.d., at least three experiments
[18] = peptide from the extracellular side, ± s.d., at least three experiments

AEDANS-labelled OBS1-fusion protein (colicin E9 OmpF-binding site 1 fused to a carrier), sequence (P09883 whole entry, the tested form may be a part): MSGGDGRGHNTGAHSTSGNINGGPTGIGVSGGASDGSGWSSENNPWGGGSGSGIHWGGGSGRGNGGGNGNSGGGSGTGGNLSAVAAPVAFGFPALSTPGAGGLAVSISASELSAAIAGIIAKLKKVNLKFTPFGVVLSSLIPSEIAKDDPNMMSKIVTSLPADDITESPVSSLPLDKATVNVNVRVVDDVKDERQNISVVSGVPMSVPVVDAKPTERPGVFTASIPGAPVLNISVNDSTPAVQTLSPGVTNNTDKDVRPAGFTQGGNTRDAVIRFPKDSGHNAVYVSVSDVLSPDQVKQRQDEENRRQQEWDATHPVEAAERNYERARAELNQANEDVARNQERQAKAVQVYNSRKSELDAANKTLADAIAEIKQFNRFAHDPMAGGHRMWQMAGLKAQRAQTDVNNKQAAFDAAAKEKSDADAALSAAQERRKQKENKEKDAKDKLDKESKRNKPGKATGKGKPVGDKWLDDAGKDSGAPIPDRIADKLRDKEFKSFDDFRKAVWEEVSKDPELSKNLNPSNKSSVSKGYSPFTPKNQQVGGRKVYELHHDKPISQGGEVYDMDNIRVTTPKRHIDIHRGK

For `C[C@H](NC(=O)CNC(=O)[C@@H](NC(=O)[C@H](CC(N)=O)NC(=O)[C@H](Cc1c[nH]cn1)NC(=O)CNC(=O)[C@H](CCCNC(=N)N)NC(=O)CNC(=O)[C@H](CC(=O)O)NC(=O)CNC(=O)CNC(=O)[C@@H](N)CO)[C@@H](C)O)C(=O)N[C@@H](Cc1c[nH]cn1)C(=O)N[C@@H](CO)C(=O)N[C@H](C(=O)N[C@@H](CO)C(=O)NCC(N)=O)[C@@H](C)O` [OBS1_2–18] (H-SGGDGRGHNTGAHSTSG-NH2), the k1 (OmpF [1]; peptide from the periplasmic side, ± s.d.) was 9.6 ± 0.60 10^6 M^–1 s^–1, the k2 (OmpF [1]; [17]) was 6.1 ± 0.42 10^6 M^–1 s^–1 and the k3 (OmpF [1]; [17]) was 3.2 ± 0.25 10^6 M^–1 s^–1. The “k–1” value (OmpF [1]; [17]) was 43 ± 1.5 s^–1, the “k–2” value (OmpF [1]; [17]) was 78 ± 3.9 s^–1 and the “k–3” value (OmpF [1]; [17]) was 111 ± 6.6 s^–1.

In the case of “IUTD-fusion (ColE9_(1–83)-TEV-E9 DNase·Im9His6) (from UniProt P09883 1-83; P13479 1-86) (complex)”, the k01 (association with the first subunit, at 0 mV) [2] is reported as 9800 M⁻¹ s⁻¹, the other [2] is reported as 181 s⁻¹ and the k21' (unbinding of OBS1 from the second subunit, at 0 mV) [3] is reported as 3.9 s⁻¹. The other [3] was 5300 s⁻¹, the effective molarity (EM) [4] was 0.9 mM and the koff (failed attempts at threading during the latency) [4] was 300 s⁻¹.

In the case of “Colicin E9 OBS1 2-18 (from UniProt P09883)”, the Kd (OmpF (Escherichia coli)) is given as 1.8 µM.

For ColE9_2–83-ENLYFQ [IUTD], the solubility [5] was ≤ 5 µM, the “k12′ (rebinding)” value (OmpF [6]) was “≈ 10^3 s^–1” and the “Association with a first subunit: k01” value (OmpF [6]; SD) was 6.3 ± 1.9 104 M-1s-1 and 10 ± 4.1 104 M-1s-1. The “Initial binding of the OBS1 sequence to a second subunit: k12” value (OmpF [6]; SD) was 58 ± 13 s⁻¹ and 38 ± 17 s⁻¹, the “Rebinding of the OBS1 sequence to a second subunit: k12’” value (OmpF [6]; SD) was 2200 ± 270 s⁻¹ and 1400 ± 340 s⁻¹ and the “Unbinding of the OBS1 sequence from the second subunit: k21” value (OmpF [6]; SD) was 2.6 ± 1.1 s⁻¹ and 3.4 ± 0.7 s⁻¹. The “k01, association with the first OmpF subunit” value (OmpF [6]; pH 6.4) was “≈ 10^4 M^–1 s^–1”, the “k12, initial binding of OBS1 to the second OmpF subunit” value (OmpF [6]; pH 6.4) was “≈ 10 ^2 s^–1” and the “occlusion of OmpF subunits after addition to the extracellular side (in words)” value (OmpF [6]; pH 6.4) was “sequential occlusion of two OmpF subunits”.

In the case of “Colicin E9 OBS2 54-63 (from UniProt P09883)”, the Kd (OmpF (Escherichia coli)) is given as 24 µM.

In the case of `CC[C@H](C)[C@H](NC(C)=O)C(=O)N[C@@H](Cc1c[nH]cn1)C(=O)N[C@@H](Cc1c[nH]c2ccccc12)C(=O)NCC(=O)NCC(=O)NCC(=O)N[C@@H](CO)C(=O)NCC(=O)N[C@@H](CCCNC(=N)N)C(=O)NCC(N)=O` [OBS2_54–63] (Ac-IHWGGGSGRG-NH2), the “higher affinity from the periplasmic side than from the extracellular side” value (OmpF [1]; OBS2 peptide, PLB recording) is reported as 200 times, the “slower dissociation when added to the periplasmic side than to the extracellular side” value (OmpF [1]; OBS2 peptide, PLB recording) is reported as 4 orders of magnitude and the k1 (OmpF [1]; peptide from the extracellular side, ± s.d.) is reported as 4.0 ± 0.60 10^6 M^–1 s^–1. The k3 (OmpF [1]; peptide from the extracellular side, fewer events (<100), error relatively large) was 0.97 ± 0.50 ^b 10^6 M^–1 s^–1, the k2 (OmpF [1]; [18]) was 2.2 ± 0.64 10^6 M^–1 s^–1 and the “k–1” value (OmpF [1]; [18]) was 1.3 ± 0.10 × 10^4 s^–1. The “k–2” value (OmpF [1]; [18]) was 2.5 ± 0.34 × 10^4 s^–1 and the “k–3” value (OmpF [1]; [18]) was 3.2 ± 0.47 × 10^4 s^–1.

For OmpF porin (outer membrane protein F), the “k1 (association rate constant)” value [7] was 9.80 ± 0.31 μM^–1 s^–1 and the “k–1 (dissociation rate constant)” value [7] was 3.22 ± 0.03 s^–1.

B1: OBS1_(2-18) peptide (NH2-OBS1_(2-18)-CONH2) (peptide)
peptide: SGGDGRGHNTGAHSTSG-NH2
Molecule B1 has a Kd (OmpF porin trimer [8]) of 5400 µM.

B2: untagged IUTD (ColE9_(2-83)-ENLYFQ) (domain or fragment)
chain: SGGDGRGHNTGAHSTSGNINGGPTGIGVSGGASDGSGWSSENNPWGGGSGSGIHWGGGSGRGNGGGNGNSGGGSGTGGNLSAENLYFQ
B2: binds (OmpF porin trimer [9]).

B3: OBS1_(2-26) peptide (NH2-OBS1_(2-26)-CONH2) (peptide, UniProt P09883 2-26, looked up)
peptide: SGGDGRGHNTGAHSTSGNINGGPTG-NH2
B3: binds (OmpF porin trimer [10]).

B4: OBS1_(2-18) peptide (NH2-OBS1_(2-18)-CONH2) (peptide)
peptide: H-SGGDGRGHNTGAHSTSG-NH2
With B4 the Kd [11] was 5000 µM and the Kd [12] was 13 µM.

B5: OBS2_(54-63) peptide (acetyl-OBS2_(54-63)-CONH2) (peptide)
peptide: Ac-IHWGGGSGRG-NH2
In the case of B5, the Kd [13] is reported as 60 µM and the Kd [14] is reported as 11000 µM.

B6: OBS1–mSA (OBS1_(2-18)-Linker-Cys-HPDP-Biotin bound to monovalent streptavidin) (peptide)
peptide: SGGDGRGHNTGAHSTSGSSGGSSGGSSGGC([HPDP-Biotin])
modifications: also: bound to monovalent streptavidin
Work on B6 yielded a koff [15] of ~600 s⁻¹ and a kon [15] of ~5e+06 M⁻¹ s⁻¹.

B7: mSA–OBS2 (Biotin-HPDP-Cys-Linker-OBS2_(54-63) bound to monovalent streptavidin) (peptide)
peptide: C([HPDP-Biotin])GGSSGGSSGGSSIHWGGGSGRG
modifications: also: bound to monovalent streptavidin
B7: binds [15].

B8: free IUTD (ColE9_(2–83)-ENLYFQ) (domain or fragment)
chain: B2 chain
B8: binds [16].
